Reference: PMC10469688, “Comparative pharmacokinetics and safety evaluation of high dosage regimens of Andrographis paniculata aqueous extract after single and multiple oral administration in healthy participants” (Frontiers in Pharmacology, 2023)
Like-named read-outs stand apart in the source and are kept apart here.

Tests used:
[1] = Plasma pharmacokinetics after single and multiple oral administration of A. paniculata aqueous extract capsules in healthy participants (HPLC-MS/MS, non-compartmental analysis); format: in vivo, human; settings: for CL/F / AUC(0-t) / MRT / Vd/F / half-life / Tmax / AUC(0-inf) / Cmax: human; for CL/F / AUC(0-t) / MRT / Vd/F / half-life / Tmax / AUC(0-inf): plasma; for MRT: read-out: MRT; for Vd/F: read-out: Vd/F; for Tmax: read-out: Tmax; for AUC(0-inf): read-out: AUC(0-inf); for Cmax: read-out: Cmax
Protocol: (§1) An opened-label, two-dosage, single- and multiple-oral dosing, single center, phase I safety and pharmacokinetic study was conducted in healthy participants while they were under a fasting condition. […] Two weeks prior to the beginning of the clinical study, the volunteers were advised to abstain from other dietary supplements, herbal products, or any concomitant medicines. During the period of the study, no other medications were allowed. All participants fasted overnight for at least 8 h before drug administration. The study conducted a single-dose investigation on day 1 by oral administering A. paniculata extract capsules once in both groups. Twelve participants in group 1 received 3 capsules orally (equivalent to 60 mg of andrographolide) with 240 mL of water, while another twelve participants in group 2 received 6 capsules (equivalent to 120 mg of andrographolide). This was followed by serial blood sampling for up to 24 h after dosing. For blood collection, 6 mL of venous blood in EDTA tube was collected via a forearm vein catheter at each time point including pre-dose (0 h), and post-dose after oral administration (T 0.167, 0.333, 0.5, 0.75, 1, 1.5, 2, 4, 6, 8, 10, 12 and 24 h). Subsequently, observation of elimination continued until 48 h post-dose to ensure complete excretion of the major active diterpenoids through urine. Urine samples were collected at day 0 (the day prior to dosing) and day 1–2 (T 0–4, 4–8, 8–12,12–24, 24–32, 32–40, and 40–48 h after dosing). The study then proceeded to investigate multiple doses in both groups by administering continuous oral doses from day 3 until the morning of day 5. (dosing at T48, 56, 64, 72, 80, 88, and 96 h). In group 1, three capsules were administered orally before meals, three times a day (3 × 3 capsules at 8-h intervals, calculated as 180 mg/day of andrographolide); whereas in group 2, six capsules were administered daily, three times a day (6 × 3 capsules at 8-h intervals, calculated as 360 mg/day of andrographolide). For serial blood sampling of multiple doses, 6 mL of blood samples were collected starting in the morning of day 5 (sampling timepoints T 96, 96.167, 96.333, 96.5, 96.75, 97, 97.5, 98, 100, 102, and 104 h post dose).
(§2) All collected blood samples were centrifuged at 4,000 rpm, 4^οC, for 5 min. Plasma was collected and stored in cryotubes at −70^οC until analysis. Urine was kept as 10 mL aliquot samples at each time point and stored at −70^οC until analysis. Extraction was performed by protein precipitation method as previously reported ([Songvut et al., 2023]). Briefly, 50 µL of either a plasma or urine sample was mixed with 200 µL of methanol containing an internal standard (IS) of digoxin (50 ng/mL). Pretreated samples were vortexed for 10 min and were then centrifuged at 12,000 rpm, 4°C, for 10 min. The supernatants were filtered through a 0.2 µm PVDF membrane and were subsequently transferred to vials for HPLC-MS/MS analysis.
(§3) Hydrolysis of the glucuronidated and sulfated conjugates was conducted by enzymatic incubation as our previous published method ([Songvut et al., 2023]). To analyze the metabolic conjugations, 50 μL of either a plasma or urine sample was pre-incubated at 37^οC with 50 µL of either of β-glucuronidase in sodium phosphate buffer (pH 6.8) for 30 min, or sulfatase in sodium acetate buffer (pH 5) for 2 h. IS (50 ng/mL) was then added along with 150 μL of methanol to precipitate protein. The extracted samples were then vortexed and centrifuged at 12,000 rpm, 4^οC, for 10 min. The supernatants were collected by filtering through a 0.2-µm PVDF membrane before HPLC-MS/MS injection.
(§4) Analysis for the concentrations of targeted compounds in plasma and urine samples were carried out using HPLC-MS/MS at the Laboratory of Pharmacology, Chulabhorn Research Institute, Bangkok, Thailand. The quantitative determination was performed according to a previously validated method ([Songvut et al., 2023]). […]

[2] = Cumulative urinary excretion after single oral administration of A. paniculata aqueous extract capsules in healthy participants; format: in vivo, human; settings: for Cumulative urine: urine T 0–48 h
Protocol: as §1, §2, §3, §4

[3] = parameters: method as in Panossian et al., 2000; settings: previous pharmacokinetic studies; ref Panossian et al., 2000; cited from earlier work
[4] = multiple oral doses 60 mg × 3 times/day of andrographolide, n = 12, mean ± SD
[5] = multiple oral doses 60 mg × 3 times/day of andrographolide, n = 12, mean ± SD, read-out: AUC(0–8h)
[6] = multiple oral doses 60 mg × 3 times/day of andrographolide, n = 12, median [IQR]
[7] = multiple oral doses 120 mg × 3 times/day of andrographolide, n = 11, mean ± SD
[8] = multiple oral doses 120 mg × 3 times/day of andrographolide, n = 11, mean ± SD, read-out: AUC(0–8h)
[9] = multiple oral doses 120 mg × 3 times/day of andrographolide, n = 11, median [IQR]
[10] = single oral dose equivalent to 60 mg andrographolide, n = 12, mean ± SD
[11] = single oral dose equivalent to 60 mg andrographolide, n = 12, mean ± SD, read-out: AUC(0–24h)
[12] = single oral dose equivalent to 60 mg andrographolide, n = 12, median [IQR]
[13] = single oral dose equivalent to 120 mg andrographolide, n = 11, mean ± SD
[14] = single oral dose equivalent to 120 mg andrographolide, n = 11, mean ± SD, read-out: AUC(0–24h)
[15] = single oral dose equivalent to 120 mg andrographolide, n = 11, median [IQR]
[16] = multiple oral doses 60 mg × 3 times/day of andrographolide, plasma T 0–8 h, n = 12, mean ± SD
[17] = multiple oral doses 120 mg × 3 times/day of andrographolide, plasma T 0–8 h, n = 11, mean ± SD
[18] = single oral dose equivalent to 60 mg andrographolide, plasma T 0–24 h, n = 12, mean ± SD
[19] = single oral dose equivalent to 120 mg andrographolide, plasma T 0–24 h, n = 11, mean ± SD

| SMILES | CL/F [1, 4] | AUC(0-t) [1, 5] | MRT [1, 4] | Vd/F [1, 4] | half-life [1, 6] | Tmax [1, 6] | CL/F [1, 7] | AUC(0-t) [1, 8] | MRT [1, 7] | Vd/F [1, 7] | half-life [1, 9] | Tmax [1, 9] | CL/F [1, 10] | AUC(0-inf) [1, 10] | AUC(0-t) [1, 11] | MRT [1, 10] | Vd/F [1, 10] | half-life [1, 12] | Tmax [1, 12] | CL/F [1, 13] | also measured |
| --- | --- | --- | --- | --- | --- | --- | --- | --- | --- | --- | --- | --- | --- | --- | --- | --- | --- | --- | --- | --- | --- |
| C=C1CC[C@@H]2[C@](C)(CO)[C@H](O)CC[C@@]2(C)[C@@H]1C/C=C1/C(=O)OC[C@H]1O [Andrographolide, andrographolide] | 75 mL/min/kg | 195 ± 24 ng·h/mL | 4.3 ± 0.99 h | 18 ± 8 L/kg | 138 min | 39 min | 91.7 mL/min/kg | 345 ± 48.8 ng·h/mL | 3.4 ± 0.45 h | 14.7 ± 3.7 L/kg | 102 min | 48 min | 81.7 mL/min/kg | 210 ± 25.4 ng·h/mL | 210 ± 25.4 ng·h/mL | 6 ± 0.45 h | 9 ± 1.66 L/kg | 78 min | 48 min | 100 mL/min/kg | AUC(0-inf) [1, 13]: 345 ± 63.5 ng·h/mL; AUC(0-t) [1, 14]: 345 ± 63.5 ng·h/mL; MRT [1, 13]: 5.3 ± 0.63 h; Vd/F [1, 13]: 10.8 ± 1.6 L/kg; half-life [1, 15]: 72 min; Tmax [1, 15]: 48 min; Cmax [1, 16]: 85.9 ± 19 ng/mL; Cmax [1, 17]: 172 ± 54.4 ng/mL; Cmax [1, 18]: 72.1 ± 28.7 ng/mL; Cmax [1, 19]: 112 ± 33.4 ng/mL; Amount excreted in urine on doubling the oral dose ([2]; 60 vs 120 mg of andrographolide): nearly corresponding doubling; Cumulative urine [2, 10]: 372 ± 159 µg; Cumulative urine [2, 13]: 1,193±553 μg; Tmax [3]: 1.36 h |
| C=C1CC[C@@H]2[C@](C)(CO[C@@H]3O[C@H](CO)[C@@H](O)[C@H](O)[C@H]3O)CCC[C@@]2(C)[C@@H]1CCC1=CCOC1=O [Neoandrographolide, neoandrographolide] | 65 mL/min/kg | 69.7 ± 12.9 ng·h/mL | 1.7 ± 0.22 h | 3.4 ± 0.78 L/kg | 36 min | 60 min | 71.7 mL/min/kg | 128 ± 29.1 ng·h/mL | 1.9 ± 0.18 h | 1.2 ± 0.29 L/kg | 11.4 min | 60 min | 36.7 mL/min/kg | 41 ± 4.9 ng·h/mL | 41 ± 4.9 ng·h/mL | 1.8 ± 0.33 h | 0.74 ± 0.16 L/kg | 13.8 min | 54 min | 88.3 mL/min/kg | Detectability as conjugated metabolites in plasma ([1]; glucuronide and sulfate derivatives): less detectable; AUC(0-inf) [1, 4]: 69.7 ± 12.9 ng·h/mL; AUC(0-inf) [1, 7]: 128 ± 29.1 ng·h/mL; AUC(0-inf) [1, 13]: 104 ± 22.6 ng·h/mL; AUC(0-t) [1, 14]: 104 ± 22.6 ng·h/mL; MRT [1, 13]: 2.2 ± 0.22 h; Vd/F [1, 13]: 1.5 ± 0.33 L/kg; half-life [1, 15]: 11.4 min; Tmax [1, 15]: 48 min; Cmax [1, 16]: 34.8 ± 6.3 ng/mL; Cmax [1, 17]: 60.7 ± 12.2 ng/mL; Cmax [1, 18]: 24.4 ± 5.6 ng/mL; Cmax [1, 19]: 50.4 ± 19.2 ng/mL; Cumulative urine [2, 10]: 24.0 ± 18.1 µg; Cumulative urine [2, 13]: 66.7 ± 29.3 µg |
